Molecular target: T1, Human FAAH (Homo sapiens, UniProt O00519)
T1 construct: The full length FAAH was subcloned into the mammalian expression vector, pcDEF.neo; expressed in transfected cells
T1 sequence (O00519 1-579): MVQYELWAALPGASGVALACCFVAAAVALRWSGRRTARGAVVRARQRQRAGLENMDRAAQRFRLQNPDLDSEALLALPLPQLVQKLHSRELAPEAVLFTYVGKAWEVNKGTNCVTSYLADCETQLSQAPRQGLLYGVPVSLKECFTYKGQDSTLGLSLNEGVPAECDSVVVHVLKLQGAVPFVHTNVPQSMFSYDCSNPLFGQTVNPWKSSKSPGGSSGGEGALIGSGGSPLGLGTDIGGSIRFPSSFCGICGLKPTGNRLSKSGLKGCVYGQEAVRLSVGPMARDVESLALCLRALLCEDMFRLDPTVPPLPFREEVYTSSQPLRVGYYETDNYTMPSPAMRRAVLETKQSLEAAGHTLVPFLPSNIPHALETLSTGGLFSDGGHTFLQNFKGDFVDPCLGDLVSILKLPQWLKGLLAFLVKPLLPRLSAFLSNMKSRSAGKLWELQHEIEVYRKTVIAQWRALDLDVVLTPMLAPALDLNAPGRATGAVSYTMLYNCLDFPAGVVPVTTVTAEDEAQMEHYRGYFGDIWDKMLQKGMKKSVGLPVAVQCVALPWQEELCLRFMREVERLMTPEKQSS
Assay: Human FAAH lysate assay (CHO cell lysate, AAMCA fluorescent substrate)
Assay type: biochemical
Conditions: human FAAH lysate; read-out: Human FAAH lysate assay: IC50
Description: To assist in assay development stable cell lines for human, murine and rat full length FAAH were developed. Human FAAH cDNA (Accession No: NM-001441.1) was purchased from Origene (Rockville, Md.). The full length FAAH was subcloned into the mammalian expression vector, pcDEF.neo, using XbaI and EcoRI restriction sites and used for stable cell line generation. CHO cells expressing FAAH were used to prepare either crude cell lysate or microsome fractions. To harvest cells, tissue culture media was decanted, the monolayer washed three times with Ca^++Mg^++ free PBS and cells recovered after 15 min in enzyme free dissociation media (Millipore Corp, Billerica, Mass.). Cells were collected by centrifuging at 2000 rpm for 15 min. and the cell pellet re-suspended with 50 mM HEPES (pH 7.4) containing 1 mM EDTA and the protease inhibitors aprotinin (1 mg/ml) and leupeptin (100 μM). […] The pellet containing FAAH-enriched microsomes was re-suspend in 50 mM HEPES, (pH 7,4) 1 mM EDTA, and any remaining DNA sheared by passage of material through a 23 gauge needle and aliquots of enzyme were store at -80° C. prior to use. […] (American Radiolabeled Chemicals; 1 mCi/ml) with FAAH (Life Sciences (1995), 56, 1999-2005 and Journal of Pharmacology and Experimented Therapeutics (1997), 283, 729-734), Analytical. Biochemistry (2003), 318, 270-5. […] Analytical. Biochemistry (2005). 343, 143-51 […] Fluorescent release as a measure of FAAH activity was monitored by reading the plate in a CytoFluor Multiplate Reader ([…]). Whole cell assay is conducted with cells harvested after rinsing tissue culture flasks three times with Ca^++Mg^++ free PBS, incubating for 10 min in Enzyme free dissociation media and centrifuging for 5 minutes at 1,000 rpm in table top centrifuge. Cells are resuspended in assay buffer at desired cell number in (4×10^4 cells/assay in 96-well format; 1×10^4 cells/assay in 384-well format) and assayed as described. […] The reaction was terminated by addition of 2 volumes of chloroform:methanol (1:1) and mixed by vortexing. […] K., et al. A fluorescence-based assay for fatty acid amide hydrolase compatible with high-throughput screening. Anal. Biochem. 343:143-51 (2005) • Wilson S. J., et l. A high-throughput-compatible assay for determining the activity of fatty acid amide hydrolase. Anal Biochem. 318:270-5 (2003).

Row | Structure (SMILES) | IC50 [nM]
1 | CCn1ccc(-c2nc(-c3ccc(-c4ncon4)cc3)c(Sc3ccc(Cl)cc3)n2C)n1 [Example 140, 3-4-({5-[(4-chlorophenyl)sulfanyl]-2-(1-ethyl-1H-pyrazol-3-yl)-1-methyl-1H-imidazol-4-yl)phenyl)-1,2,4-oxadiazole] | 28.7
2 | CCn1nccc1-c1nc(-c2ccc(-c3ncon3)cc2)c(Sc2ccc(Cl)cc2)n1C [Example 141, 3-(4-{5-[(4-chlorophenyl)sulfanyl]-2-(1-ethyl-1H-pyrazol-5-yl)-1-methyl-1H-imidazol-4-yl}phenyl)-1,2,4-oxadiazole] | 67.9
3 | CC(C)n1ccc(-c2nc(-c3ccc(-c4ncon4)cc3)c(Sc3ccc(Cl)cc3)n2C)n1 [Example 142, 3-(4-{5-[(4-chlorophenyl)sulfanyl]-1-methyl-2-[1-(propan-2-yl)-1H-pyrazol-3-yl]-1H-imidazol-4-yl}phenyl)-1,2,4-oxadiazole] | 15.6
4 | Cn1ccc(-c2nc(-c3ccc(-c4ncon4)cc3)c(Sc3ccc(Cl)cc3)n2C)n1 [Example 143, 3-(4-{5-[(4-chlorophenyl)sulfanyl]-1-methyl-2-(1-methyl-1H-pyrazol-3-yl)-1H-imidazol-4-yl}phenyl)-1,2,4-oxadiazole] | 11.7
5 | Cn1c(-c2ccn(C3CC3)n2)nc(-c2ccc(-c3ncon3)cc2)c1Sc1ccc(Cl)cc1 [Example 144, 3-(4-{5-[(4-chlorophenyl)sulfanyl]-2-(1-cyclopropyl-1H-pyrazol-3-yl)-1-methyl-1H-imidazol-4-yl}phenyl)-1,2,4-oxadiazole] | 7.4
6 | Cn1c(-c2ccn(CC(C)(C)O)n2)nc(-c2ccc(C#N)cc2)c1Sc1ccc(Cl)cc1 [Example 145, 4-{5-[(4-chlorophenyl)sulfanyl]-2-[1-(2-hydroxy-2-methylpropyl)-1H-pyrazol-3-yl]-1-methyl-1H-imidazol-4-yl}benzonitrile] | 23.1
7 | Cn1c(C(C)(C)O)nc(-c2ccc(-c3ncon3)cc2)c1Sc1ccc(Cl)cc1 [Example 146, 2-{5-[(4-chlorophenyl)sulfanyl]-1-methyl-4-[4-(1,2,4-oxadiazol-3-yl)phenyl]-1H-imidazol-2-yl}propan-2-ol] | 208
8 | CCOC(C)(C)c1nc(-c2ccc(-c3ncon3)cc2)c(Sc2ccc(Cl)cc2)n1C [Example 147, 3-(4-{5-[(4-chlorophenyl)sulfanyl]-2-(2-ethoxypropan-2-yl)-1-methyl-1H-imidazol-4-yl}phenyl)-1,2,4-oxadiazole] | 24.4
9 | Cn1c(-c2cc(C3CC3)on2)nc(-c2ccc(C(C)(C)O)nc2)c1Sc1ccc(Cl)cn1 [Example 148, 2-(5-{5-[(5-chloropyridin-2-yl)sulfanyl]-2-(5-cyclopropylisoxazol-3-yl)-1-methyl-1H-imidazol-4-yl}pyridin-2-yl)propan-2-ol] | 91
